PubChem BioAssay (NCI)
Where “and” joins values, the source holds several entries; their conditions need not be identical. Equal values may be shown once.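 In this assay, cells in 96-well plates receive the compound at five concentrations for 48 hours. Endpoints are linearly interpolated between the surrounding concentrations. GI50 is the concentration that inhibits growth by half. TGI is the concentration that stops growth completely.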

What was measured:
Test in all cases: NCI anticancer screen, dose series, 48 h
PC-3 prostate = tested on: PC-3 prostate
SNB-75 CNS = tested on: SNB-75 CNS
EKVX NSCLC = tested on: EKVX NSCLC
SW-620 colon = tested on: SW-620 colon
ACHN renal = tested on: ACHN renal
OVCAR-3 ovarian = tested on: OVCAR-3 ovarian
CCRF-CEM leukemia = tested on: CCRF-CEM leukemia
SF-295 CNS = tested on: SF-295 CNS

Row | Structure (SMILES) | GI50 (PC-3 prostate) | TGI (PC-3 prostate) | GI50 (SNB-75 CNS) | TGI (SNB-75 CNS) | GI50 (EKVX NSCLC) | TGI (EKVX NSCLC) | GI50 (SW-620 colon) | TGI (SW-620 colon) | GI50 (ACHN renal) | TGI (ACHN renal) | GI50 (OVCAR-3 ovarian) | TGI (OVCAR-3 ovarian) | GI50 (CCRF-CEM leukemia) | TGI (CCRF-CEM leukemia) | GI50 (SF-295 CNS) | TGI (SF-295 CNS)
1 | N#[N+]c1ccc(Nc2ccccc2)cc1 | > 50 µg/mL | > 50 µg/mL | > 50 µg/mL | > 50 µg/mL | > 50 µg/mL | > 50 µg/mL | > 50 µg/mL | > 50 µg/mL | > 50 µg/mL | > 50 µg/mL | > 50 µg/mL | > 50 µg/mL | > 50 µg/mL | > 50 µg/mL | > 50 µg/mL | > 50 µg/mL
2 | Nc1ccccc1C#Cc1ccccc1C#Cc1cccs1 | 13.8 µM | 33 µM | 82.7 µM | > 100 µM | 18 µM | 48.5 µM | 18 µM | 41.1 µM | 18.7 µM | 39.4 µM | 13.1 µM | 26.4 µM | 19.9 µM | 70.1 µM | 16.1 µM | 37.3 µM
3 | COc1cc2c3cc1Oc1c(OC)c(OC)cc4c1C(Cc1ccc(O)c(c1)Oc1ccc(cc1)CC3N(C)CC2)N(C)CC4 (stereo unspecified) | 23.4 µM | > 100 µM | 11.3 µM | 52.7 µM and 24 µM | – | > 100 µM | – | > 100 µM and 33.4 µM | 12.7 µM | 34.9 µM and 44.1 µM | – | 39.1 µM | – | 81.8 µM and 57.6 µM | 13.3 µM | 59.1 µM and 29.8 µM
4 | COc1cc2cc(Oc3cccc(NC(=O)Nc4cc(C(F)(F)F)cc(C(F)(F)F)c4)c3)c(C)nc2cc1OC | 0.423 µM | 2.48 µM | 1.73 µM | 5.05 µM | 1 µM | 2.98 µM | 1.94 µM | 5.71 µM | 0.39 µM | 1.69 µM | 0.488 µM | 1.7 µM | 0.641 µM | 3.47 µM | 0.481 µM | 1.94 µM
5 | Cn1c(=O)c2c(nc(N/N=C/c3ccccc3C(=O)O)n2C)n(C)c1=O | – | > 100 µM | – | > 100 µM | – | > 100 µM | – | > 100 µM | – | > 100 µM | – | > 100 µM | – | > 100 µM | – | > 100 µM
6 | Nn1c(-c2ccc(Cl)cc2)nc2c(-c3ccc(Cl)cc3)nc3ccc(Cl)cc3c2c1=O | 60.7 µM | > 100 µM | 4.79 µM | 19.5 µM | 5.86 µM | > 100 µM | 6.06 µM | > 100 µM | 5.42 µM | 25.5 µM | 2.7 µM | 8.68 µM | – | 1.11 µM | 13.3 µM | 34.4 µM
7 | O=C1Nc2ccc3c(c2/C1=C\c1cc2c(cc1Br)OCO2)OCO3 | 0.338 µM | 2.8 µM | 0.189 µM | 1.41 µM | 0.639 µM | 8.09 µM | 0.357 µM | 3.47 µM | 0.689 µM | 6.55 µM | 0.217 µM | 0.589 µM | 0.244 µM | 3.05 µM | 0.527 µM | 2.5 µM
8 | CC[C@H]1OC(=O)[C@H](C)[C@@H](O[C@H]2C[C@@](C)(OC)[C@@H](O)[C@H](C)O2)[C@H](C)[C@@H](O[C@@H]2O[C@H](C)C[C@H](N(C)C)[C@H]2O)[C@](C)(OC)C/C(C)=C2/O[C@@]1(C)C=C2C | 1.68 µM | 3.46 µM | 1.27 µM | 2.64 µM | 1.71 µM | 3.26 µM | 1.78 µM | 3.42 µM | 1.76 µM | 3.15 µM | 1.76 µM | 3.28 µM | 2.22 µM | 5.62 µM | 1.85 µM | 3.35 µM
9 | COc1ccc(C2NC(=S)NC3=C2CCOc2c3ccc3ccccc23)cc1 (stereo unspecified) | > 100 µM | > 100 µM | 60.7 µM | > 100 µM | 17.4 µM | > 100 µM | > 100 µM | > 100 µM | 69.3 µM | > 100 µM | 51.5 µM | > 100 µM | > 100 µM | > 100 µM | 19.1 µM | > 100 µM
10 | COc1ccc(C(O)c2cc3c(N)c(C(=O)Nc4cccc(Br)c4C)sc3nc2C)cc1 (stereo unspecified) | 0.618 µM | 18.4 µM | 0.0816 µM | 11.2 µM | 0.259 µM | > 33.3 µM | 0.124 µM | > 33.3 µM | 0.216 µM | > 26.4 µM | 0.103 µM | 1.08 µM | 0.139 µM | > 33.3 µM | 0.133 µM | 6.14 µM
11 | CSC1=Nc2c(c(C)c(-c3ccccc3)n2COC(CO)CO)C2=NC(=O)CC(C)N12 (stereo unspecified) | > 100 µM | > 100 µM | 85.3 µM | > 100 µM | > 100 µM | > 100 µM | > 100 µM | > 100 µM | > 100 µM | > 100 µM | > 100 µM | > 100 µM | > 100 µM | > 100 µM | > 100 µM | > 100 µM
12 | CCOC(=O)c1c(CN2CCN(C)CC2)nc2ccc(Cl)cc2c1-c1ccccc1 | 8.83 µM | 24.8 µM | 2.15 µM | 8.95 µM | 8.02 µM | 25 µM | 9.35 µM | 21.6 µM | 12.2 µM | 25.5 µM | 6.5 µM | 19.6 µM | 7.17 µM | 28.9 µM | 3.27 µM | 9.95 µM
13 | COc1ccc(/C=C/C(=O)c2cc3c(N)c(C(=O)Nc4ccc(OC)cc4)sc3nc2C)cc1 | 0.434 µM | > 50 µM | 0.344 µM | 2.21 µM | 1.3 µM | > 50 µM | 0.543 µM | > 50 µM | 0.397 µM | > 50 µM | 0.0276 µM | 1.96 µM | 0.567 µM | > 50 µM | 0.0645 µM | –
14 | CCOc1ccc2cc(-c3nn(CC4CCNCC4)c4ncnc(N)c34)ccc2c1 | 15.5 µM | 41.9 µM | 5.13 µM | 20.8 µM | 22.5 µM | > 100 µM | 15.2 µM | 31.4 µM | 15.1 µM | 29.8 µM | 18.1 µM | 43.8 µM | 13.9 µM | 34.2 µM | 14.8 µM | 29.5 µM
15 | NC(=O)/C(=C/n1cnc(-c2cc(C(F)(F)F)cc(C(F)(F)F)c2)n1)c1cncnc1 | 0.185 µM | 14.8 µM | 0.454 µM | 5.48 µM | 0.566 µM | 20.8 µM | 0.175 µM | 7.03 µM | 0.386 µM | 11.4 µM | 0.154 µM | 3.32 µM | 0.231 µM | 14.4 µM | 0.667 µM | 17.1 µM
